Tested on: ⍺4β7 on RPMI8866 cells
Experiment: Flow cytometry: cross-inhibition of MAdCAM-Ig, VCAM-Ig and D1D2-Ig⍺tp binding to RPMI8866 cells
Design: species or system human
Conditions: increasing concentrations of unlabeled inhibitor, Fig 2C, 2D
Description: Cis interactions between various integrins and leukocyte receptors are known to regulate immune cell functions. To determine whether CD4 inhibits MAdCAM-1 or VCAM-1 binding to ⍺4β7 we preincubated RPMI8866 cells with labelled MAdCAM-Ig or VCAM-Ig in the presence of increasing concentrations of unlabeled D1D2-Ig⍺tp. […] This implies that MAdCAM-1 and VCAM-1, acting in trans, may interfere with CD4-⍺4β7 interactions. What remains unknown is whether interactions between ⍺4β7 and CD4 impact CD4 migration into the TCR and subsequent interactions with MHC II (Fig 2E).
Fig 2 Cross-inhibition of MAdCAM-Ig, VCAM-Ig and D1D2-Ig⍺tp binding to ⍺4β7. Flow cytometric analysis of (A) PE -conjugated MAdCAM-Ig or (B) PE -conjugated VCAM-Ig binding to RPMI8866 cells pre-incubated with increasing concentrations of unlabeled D1D2-Igαtp. Cell preincubated with increasing concentrations of (C) unlabeled MAdCAM-Ig or (D) VCAM-Ig followed by PE -conjugated D1D2-Ig⍺tp. Y-axis indicates gMFI. Dashed line indicates gMFI in the absence of any inhibitor.
Cells were stained with fluoresceine conjugated mAbs or recombinant proteins using standard procedures preceded by Fc receptor blocking with human IgG. Buffers used were 10 mM HEPES 150 mM NaCl (HBS Buffer) with 100 μM CaCl2. […] Data were acquired using a FACSCanto II (BD Biosciences) and analyzed with FlowJo software (BD Biosciences). […]

MAdCAM-Ig: recombinant MAdCAM-1 Ig fusion, R&D Systems [reference compound]
inhibition of PE-conjugated D1D2-Ig⍺tp binding to ⍺4β7 (in words): inhibited D1D2-Ig⍺tp binding to ⍺4β7 in a dose dependent manner

From PMC10732398 (PLOS Pathogens, 2023)
